What was measured:
HL-60(TB) = conditions: for GI50: Leukemia
MOLT-4 = conditions: for GI50: MOLT-4, Leukemia
RPMI-8226 = conditions: for GI50: RPMI-8226, Leukemia
SR = conditions: for GI50: SR, Leukemia
HOP-62 = conditions: for GI50: HOP-62, Lung Cancer
NCI-H226 = conditions: for GI50: NCI-H226, Lung Cancer
NCI-H23 = conditions: for GI50: NCI-H23, Lung Cancer
NCI-H460 = conditions: for GI50: NCI-H460, Lung Cancer
HCT-116 = conditions: for GI50: HCT-116, Colon Cancer
HCT-15 = conditions: for GI50: HCT-15, Colon Cancer
HT29 = conditions: for GI50: HT29, Colon Cancer
KM12 = conditions: for GI50: KM12, Colon Cancer
SW-620 = conditions: for GI50: SW-620, Colon Cancer
SF-295 = conditions: for GI50: SF-295, CNS Cancer
SF-539 = conditions: for GI50: SF-539, CNS Cancer
SNB-19 = conditions: for GI50: SNB-19, CNS Cancer
SNB-75 = conditions: for GI50: SNB-75, CNS Cancer
U251 = conditions: for GI50: U251, CNS Cancer
M14 = conditions: for GI50: M14, Melanoma
MDA-MB-435 = conditions: for GI50: MDA-MB-435, Melanoma
SK-MEL-28 = conditions: for GI50: SK-MEL-28, Melanoma
SK-MEL-5 = conditions: for GI50: SK-MEL-5, Melanoma
UACC-257 = conditions: for GI50: UACC-257, Melanoma
OVCAR-3 = conditions: for GI50: OVCAR-3, Ovarian Cancer
OVCAR-4 = conditions: for GI50: OVCAR-4, Ovarian Cancer
OVCAR-5 = conditions: for GI50: OVCAR-5, Ovarian Cancer
OVCAR-8 = conditions: for GI50: OVCAR-8, Ovarian Cancer
NCI/ADR-RES = conditions: for GI50: NCI/ADR-RES, Ovarian Cancer
SK-OV-3 = conditions: for GI50: SK-OV-3, Ovarian Cancer
A498 = conditions: for GI50: A498, Renal Cancer
CAKI-1 = conditions: for GI50: CAKI-1, Renal Cancer
SN12C = conditions: for GI50: SN12C, Renal Cancer
UO-31 = conditions: for GI50: UO-31, Renal Cancer
PC-3 = conditions: for GI50: PC-3, Prostate Cancer
DU-145 = conditions: for GI50: DU-145, Prostate Cancer
MCF7 = conditions: for GI50: MCF7, Breast Cancer
MDA-MB-231/ATCC = conditions: for GI50: MDA-MB-231/ATCC, Breast Cancer
HS 578T = conditions: for GI50: HS 578T, Breast Cancer
BT-549 = conditions: for GI50: BT-549, Breast Cancer
T-47D = conditions: for GI50: T-47D, Breast Cancer
MDA-MB-468 = conditions: for GI50: MDA-MB-468, Breast Cancer
ACHN = test: NCI 60-cell line five dose screen: ACHN; conditions: Renal Cancer

13-(2-iodoimidazole)parthenolide [PNR-5-65]
GI50 (HL-60(TB)): 6.9 µM | CC50 (MOLT-4): 97.9 µM | GI50 (MOLT-4): 19.6 µM | CC50 (RPMI-8226): > 100 µM | GI50 (RPMI-8226): 17 µM | CC50 (SR): > 100 µM | GI50 (SR): 13.6 µM | CC50 (HOP-62): > 100 µM | GI50 (HOP-62): 47.4 µM | CC50 (NCI-H226): 62.3 µM | GI50 (NCI-H226): 15.4 µM | CC50 (NCI-H23): > 100 µM | GI50 (NCI-H23): 23.7 µM | CC50 (NCI-H460): > 100 µM | GI50 (NCI-H460): 30.1 µM | CC50 (HCT-116): 49 µM | GI50 (HCT-116): 11.8 µM | CC50 (HCT-15): 55.6 µM | GI50 (HCT-15): 10.7 µM | CC50 (HT29): 61.5 µM | GI50 (HT29): 17.6 µM | CC50 (KM12): > 100 µM | GI50 (KM12): 43.2 µM | CC50 (SW-620): 62.8 µM | GI50 (SW-620): 11.4 µM | CC50 (SF-295): > 100 µM | GI50 (SF-295): 32.1 µM | CC50 (SF-539): 60.8 µM | GI50 (SF-539): 16.7 µM | CC50 (SNB-19): > 100 µM | GI50 (SNB-19): > 100 µM | CC50 (SNB-75): > 100 µM | GI50 (SNB-75): 19.3 µM | CC50 (U251): > 100 µM | GI50 (U251): 36.7 µM | CC50 (M14): 65.6 µM | GI50 (M14): 16.5 µM | CC50 (MDA-MB-435): 59.5 µM | GI50 (MDA-MB-435): 13.8 µM | CC50 (SK-MEL-28): 73 µM | GI50 (SK-MEL-28): 16.1 µM | CC50 (SK-MEL-5): 95.6 µM | GI50 (SK-MEL-5): 18.5 µM | CC50 (UACC-257): 53.9 µM | GI50 (UACC-257): 12 µM | CC50 (OVCAR-3): 50.8 µM | GI50 (OVCAR-3): 6.85 µM | CC50 (OVCAR-4): 60 µM | GI50 (OVCAR-4): 13.2 µM | CC50 (OVCAR-5): 52.5 µM | GI50 (OVCAR-5): 13.7 µM | CC50 (OVCAR-8): 59.9 µM | GI50 (OVCAR-8): 16.6 µM | CC50 (NCI/ADR-RES): > 100 µM | GI50 (NCI/ADR-RES): 31.2 µM | CC50 (SK-OV-3): > 100 µM | GI50 (SK-OV-3): 47.3 µM | CC50 (A498): > 100 µM | GI50 (A498): 45.2 µM | CC50 (CAKI-1): 49.5 µM | GI50 (CAKI-1): 6.61 µM | CC50 (SN12C): 84.1 µM | GI50 (SN12C): 17.7 µM | CC50 (UO-31): 50 µM | GI50 (UO-31): 10.8 µM | CC50 (PC-3): > 100 µM | GI50 (PC-3): 23.1 µM | CC50 (DU-145): 68.3 µM | GI50 (DU-145): 18.8 µM | CC50 (MCF7): > 100 µM | GI50 (MCF7): 9.79 µM | CC50 (MDA-MB-231/ATCC): 59.6 µM | GI50 (MDA-MB-231/ATCC): 16.4 µM | CC50 (HS 578T): > 100 µM | GI50 (HS 578T): 21.3 µM | CC50 (BT-549): 55.3 µM | GI50 (BT-549): 15.9 µM | CC50 (T-47D): 54.3 µM | GI50 (T-47D): 9.88 µM | CC50 (MDA-MB-468): 60.4 µM | GI50 (MDA-MB-468): 11.1 µM | GI50 (ACHN): 10.5 µM

(E)-13-(3-thiopheno)parthenolide [PNR-5-53]
GI50 (HL-60(TB)): 21.7 µM | CC50 (HL-60(TB); read-out: LC50, Leukemia): 99.9 µM | CC50 (MOLT-4): > 100 µM | GI50 (MOLT-4): 25.7 µM | CC50 (RPMI-8226): > 100 µM | GI50 (RPMI-8226): 19.7 µM | CC50 (SR): > 100 µM | GI50 (SR): 20.7 µM | CC50 (HOP-62): > 100 µM | GI50 (HOP-62): 35.8 µM | CC50 (NCI-H226): > 100 µM | GI50 (NCI-H226): 30.2 µM | CC50 (NCI-H23): > 100 µM | GI50 (NCI-H23): 23 µM | CC50 (NCI-H460): > 100 µM | GI50 (NCI-H460): 29.3 µM | CC50 (HCT-116): > 100 µM | GI50 (HCT-116): 28.3 µM | CC50 (HCT-15): > 100 µM | GI50 (HCT-15): 22.6 µM | CC50 (HT29): > 100 µM | GI50 (HT29): 27 µM | CC50 (KM12): 86.7 µM | GI50 (KM12): 20.4 µM | CC50 (SW-620): > 100 µM | GI50 (SW-620): 22.9 µM | CC50 (SF-295): > 100 µM | GI50 (SF-295): 28.5 µM | GI50 (SF-539): 16.1 µM | CC50 (SNB-19): > 100 µM | GI50 (SNB-19): 47.6 µM | CC50 (SNB-75): > 100 µM | GI50 (SNB-75): 21.5 µM | CC50 (U251): > 100 µM | GI50 (U251): 21.7 µM | CC50 (M14): > 100 µM | GI50 (M14): 20.5 µM | CC50 (MDA-MB-435): > 100 µM | GI50 (MDA-MB-435): 18.3 µM | CC50 (SK-MEL-28): > 100 µM | GI50 (SK-MEL-28): 29.4 µM | CC50 (SK-MEL-5): 60.4 µM | GI50 (SK-MEL-5): 16.3 µM | CC50 (UACC-257): > 100 µM | GI50 (UACC-257): 16.6 µM | CC50 (OVCAR-3): > 100 µM | GI50 (OVCAR-3): 20.5 µM | CC50 (OVCAR-4): > 100 µM | GI50 (OVCAR-4): 24.3 µM | CC50 (OVCAR-5): > 100 µM | GI50 (OVCAR-5): 48.1 µM | CC50 (OVCAR-8): > 100 µM | GI50 (OVCAR-8): 26.9 µM | CC50 (NCI/ADR-RES): > 100 µM | GI50 (NCI/ADR-RES): 23.6 µM | CC50 (SK-OV-3): > 100 µM | GI50 (SK-OV-3): 44.9 µM | CC50 (A498): > 100 µM | GI50 (A498): 17.5 µM | CC50 (CAKI-1): > 100 µM | GI50 (CAKI-1): 30.9 µM | CC50 (SN12C): > 100 µM | GI50 (SN12C): 25.8 µM | CC50 (UO-31): > 100 µM | GI50 (UO-31): 27.3 µM | CC50 (PC-3): > 100 µM | GI50 (PC-3): 22.7 µM | CC50 (DU-145): > 100 µM | GI50 (DU-145): 25.7 µM | CC50 (MCF7): > 100 µM | GI50 (MCF7): 20 µM | CC50 (MDA-MB-231/ATCC): 81.8 µM | GI50 (MDA-MB-231/ATCC): 16 µM | CC50 (HS 578T): > 100 µM | GI50 (HS 578T): 21.5 µM | CC50 (BT-549): 88.2 µM | GI50 (BT-549): 20.1 µM | CC50 (T-47D): > 100 µM | GI50 (T-47D): 29.5 µM | CC50 (MDA-MB-468): > 100 µM | GI50 (MDA-MB-468): 17.7 µM | GI50 (ACHN): 32.8 µM

Source: US20160083397A1, “PARTHENOLIDE DERIVATIVES AND THEIR MODULATION OF PROCESSES CONTROLLED BY REGULATED TRANSLATION” (THE BOARD OF TRUSTEES OF THE UNIVERSITY OF ARKANSAS, priority 2013, published 2016)
